From publication PMC7551400, “Moderate Wine Consumption Reduces Faecal Water Cytotoxicity in Healthy Volunteers” (Nutrients, 2020)
Like-named read-outs stand apart in the source and are kept apart here.

Key:
HCT 116 cells = test: MTT cytotoxicity assay, reference compounds; format: cell-based; conditions: Homo sapiens, read-out: Toxicity (IC50 value)
Experimental: (§1) Two human colon adenocarcinoma cell lines, HT-29 (ATCC® HTB-38TM) and […]), were used to evaluate cell cytotoxicity. […] Biowest Europe, Nuaillé, France). […] Cells were grown in 75 cm^2 flasks (Corning Flask, Corning, NY, USA) at 37 °C and in a 5% CO2 atmosphere and the media were renewed every 3 days. […] Cells were seeded at a density of 3.6 × 10^5 cells/mL on well plates, and washed with warm DPBS. […] After that, supernatants were removed from the wells, and MTT (Sigma-Aldrich, St. Louis, MO, USA) solution (0.5 mg/mL) was added (100 μL/well). The plates were immediately incubated for 3 h in darkness. After this time, MTT reagent was aspirated and formazan crystals were diluted in 100 μL of dimethyl sulfoxide (DMSO; Sigma-Aldrich, St. Louis, MO, USA). Absorbance at 570 nm was measured on a Multiskan plate reader (Thermo Scientific, Newington, NH, USA). Cell viability (%) was calculated as Abssample/Abscontrol × 100. Assays were performed in triplicate and three independent experiments were carried out.

HT-29 cells [1] = test: MTT cytotoxicity assay, reference compounds; format: cell-based; conditions: Homo sapiens, read-out: Toxicity (IC50 value)
Experimental: as §1

HT-29 cells [2] = conditions: cited from earlier work
HT-29 Glc–/þ cell line = test system: HT-29 Glc–/þ cell line; design: method as in PMID 25881551; conditions: 24 h incubation; cited from earlier work
Caco 2 cells = test system: Caco 2 cells; design: method as in PMID 30359553; conditions: 24 h of incubation; cited from earlier work

| SMILES | IC50 (HCT 116 cells; HCT-116, 4 h) | IC50 (HCT 116 cells; HCT-116, 24 h) | IC50 (HT-29 cells [1]; HT-29, 4 h) | IC50 (HT-29 cells [1]; HT-29, 24 h) | Concentration at which compound became cytotoxic (HT-29 cells [2]) | IC50 (HCT 116 cells; HCT 116, 4 h incubation, MTT) | IC50 (HCT 116 cells; HCT 116, 24 h incubation, MTT) | IC50 (HT-29 cells [1]; HT-29, 4 h incubation, MTT) | IC50 (HT-29 cells [1]; HT-29, 24 h incubation, MTT) | Concentration with cytotoxicity effects (HT-29 Glc–/þ cell line) | Concentration from which a cytotoxic effect was exerted (HT-29 cells [2]; 24 h of incubation) | Concentration from which a cytotoxic effect was exerted (Caco 2 cells) |
| --- | --- | --- | --- | --- | --- | --- | --- | --- | --- | --- | --- | --- |
| Oc1ccccc1 [Phenol] | 23.8 mM | 11.4 mM | 15.8 mM | 6.16 mM | 1250 µM |  |  |  |  |  |  |  |
| Cc1ccc(O)cc1 [p-Cresol, p-cresol] |  |  |  |  |  | 5.64 mM | 4.16 mM | 5.4 mM | 2.13 mM | 800 µM | ≥ 3000 µM | ≥ 3000 µM |
